Read-outs that look alike come from different tables or passages of the source.
Legend:
[1] = tested on: Scrapie (IC) infected Hamsters; format: in vivo, Syrian hamsters; details: for Incubation period: IC scrapie-infected hamsters, 7.5% (w/v) DMSO in drinking water, median; for Percentage of infectivity (%): relative to control
PrP^Sc [2] = target: PrP^Sc (Mesocricetus auratus, UniProt P04273); format: in vivo, hamster; details: IC-inoculated, DMSO 14-end group, brain homogenate
CJD patients = details: human, in vivo
PrP^Sc [3] = details: human, in vivo
[4] = tested on: Scrapie (IP) infected Hamsters; details: for Incubation period: IP scrapie-infected hamsters, 7.5% (w/v) DMSO in drinking water
[5] = tested on: scrapie-infected neuroblastoma cells (ScN2a); details: cited from earlier work
amyloid fibrils = details: cited from earlier work
Aβ peptide = target: T1, Aβ peptide (Homo sapiens, UniProt P05067); details: cited from earlier work
T1 construct: Aβ peptide intermediate with a high β-sheet content
T1 sequence (P05067 672-711 limits assumed): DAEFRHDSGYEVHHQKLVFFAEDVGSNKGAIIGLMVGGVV

caseic amyloidosis = details: mouse, in vivo, po; cited from earlier work
amyloidotic diseases = details: human, in vivo; cited from earlier work
[6] = in vivo; cited from earlier work
[7] = in vivo, po; cited from earlier work

PrP^Sc (Mesocricetus auratus, UniProt P04273), sequence (P04273 23-231 limits assumed): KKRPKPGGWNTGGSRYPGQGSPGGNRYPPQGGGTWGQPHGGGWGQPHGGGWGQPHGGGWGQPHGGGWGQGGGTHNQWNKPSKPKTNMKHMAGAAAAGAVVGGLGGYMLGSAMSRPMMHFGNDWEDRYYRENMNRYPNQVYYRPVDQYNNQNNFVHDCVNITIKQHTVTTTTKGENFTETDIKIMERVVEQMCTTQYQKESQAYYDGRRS

## C[S+](C)[O-] [DMSO, dimethyl sulfoxide]
[1]; 0-14 dpi
  Incubation period: 85 days
[1]; 0-end dpi
  Incubation period: 101 days
[1]; 14-end dpi
  Incubation period: 107 days
[1]; 55-end dpi
  Incubation period: 91 days
[1]; IC, 0-14 group
  effect on incubation time compared with control group: significant deleterious effect
[1]; IC, DMSO treatment 0-14 dpi
  Infectivity (Log I.D 50): 7.1 Log I.D 50
  Variance from control group [P < 0.05]: + ([+] means statistically significant difference [p < 0.05])
  Percentage of infectivity (%): 1258%
[1]; IC, DMSO treatment 0-end dpi
  Infectivity (Log I.D 50): 4.9 Log I.D 50
  Variance from control group [P < 0.05]: + ([+] means statistically significant difference [p < 0.05])
  Percentage of infectivity (%): 3.16%
[1]; IC, DMSO treatment 14-end dpi
  Infectivity (Log I.D 50): 4.5 Log I.D 50
  Variance from control group [P < 0.05]: + ([+] means statistically significant difference [p < 0.05])
  Percentage of infectivity (%): 3.16%
[1]; IC, DMSO treatment 55-end dpi
  Infectivity (Log I.D 50): 6.4 Log I.D 50
[1]; IC, DMSO-treated from 55 dpi-end
  difference from control group in incubation time: no statistically significant difference
[1]; IC, treatment plans 0-end or 14-end
  incubation time for the disease compared with control group: statistically significant increase
PrP^Sc [2]; 90 dpi
  PrP^Sc in sample from untreated animal relative to DMSO-treated animal (band intensity): about 10 times
PrP^Sc [2]
  PrP in DMSO-treated animals at 90-110 dpi compared with untreated animals at 60 dpi: equivalent
  PrP^Sc in DMSO-treated animals at 110 dpi compared with untreated animals at 90 dpi (final stages): equivalent amounts
CJD patients
  cerebellar syndrome during the treatment: progressed
  cognitive decline during the treatment: no further cognitive decline
  deterioration, medical evaluation: slower than expected
  titubation and tremor, medical evaluation: improvement
PrP^Sc [3]
  secreted PrP^Sc in the urine: continuously increasing amounts
[4]; 0 - end dpi
  Incubation period: 127.6 days
[4]; 28 - end dpi
  Incubation period: 126.6 days
[4]; 55 - end dpi
  Incubation period: 136.8 days
[4]; IP, DMSO treatment 0 - end dpi
  Variance from control group [P < 0.05]: + ([+] means statistically significant difference [p < 0.05])
[4]; IP, DMSO treatment 28 - end dpi
  Variance from control group [P < 0.05]: + ([+] means statistically significant difference [p < 0.05])
[4]; IP, DMSO treatment 55 - end dpi
  Variance from control group [P < 0.05]: + ([+] means statistically significant difference [p < 0.05])
[4]; IP, all treatment plans of Table 2
  overall effect for the animals treated with DMSO: overall beneficial effect
[4]; IP, groups 0-end and 28-end
  beneficial effect on longevity: marginal
[4]; IP, treated only from 55 dpi onwards
  longevity: most remarkable longevity
[4]; hamsters, DMSO in drinking water
  adverse DMSO effects: weight loss
[5]
  formation of PrP^Sc from newly synthesized PrP^C: interfered with the formation of PrP^Sc
Amyloid fibrils
  assembly of amyloid fibrils: blocks the assembly of amyloid fibrils
  disassembly of preexisting fibrils: does not interfere
Aβ peptide
  formation of Aβ peptide intermediate with a high β-sheet content: block the formation
Caseic amyloidosis
  development of the disease: prevented the development of the disease
Amyloidotic diseases
  patients showing clinical improvement: about 50%
  urine of patients after DMSO: contains material that can form fibrils
[6]
  side effects: no serious side effects
[7]
  time to peak concentration: 4 h
